This note sets out measurements from patent publication US20230303553A1, “CDK6/DYRK2 DUAL-TARGET INHIBITOR, AND PREPARATION METHOD THEREFOR AND USE THEREOF” (JIANGSU TASLY DIYI PHARMACEUTICAL CO., LTD., priority 2021, published 2023).

Test [1] addresses CDK6 kinase (Homo sapiens (Human), UniProt Q00534). Description: CDK6 kinase activity, Lance Ultra TR-FRET. The format is biochemical.
Test [2] concerns the target DYRK2 kinase (Homo sapiens (Human), UniProt Q92630). The test is described as follows: DYRK2 kinase activity, 33P-ATP / Woodtide substrate. The format is biochemical.

A word on the IC50: it is the concentration needed to halve the response being measured. A higher IC50 goes with weaker potency in that assay.

Counter-ions that a name gives are not always drawn.

CDK6 kinase, sequence (Q00534 whole entry): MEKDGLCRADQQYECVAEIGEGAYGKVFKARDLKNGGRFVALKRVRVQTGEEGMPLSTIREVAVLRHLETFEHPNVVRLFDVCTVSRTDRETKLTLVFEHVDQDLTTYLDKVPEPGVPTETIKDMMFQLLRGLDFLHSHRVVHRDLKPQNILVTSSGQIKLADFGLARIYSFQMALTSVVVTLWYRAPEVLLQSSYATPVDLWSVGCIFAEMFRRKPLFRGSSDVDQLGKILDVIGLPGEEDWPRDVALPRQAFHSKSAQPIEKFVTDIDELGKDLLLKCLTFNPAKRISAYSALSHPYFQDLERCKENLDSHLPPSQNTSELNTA
CDK6 kinase, sequence (P24385 whole entry partner): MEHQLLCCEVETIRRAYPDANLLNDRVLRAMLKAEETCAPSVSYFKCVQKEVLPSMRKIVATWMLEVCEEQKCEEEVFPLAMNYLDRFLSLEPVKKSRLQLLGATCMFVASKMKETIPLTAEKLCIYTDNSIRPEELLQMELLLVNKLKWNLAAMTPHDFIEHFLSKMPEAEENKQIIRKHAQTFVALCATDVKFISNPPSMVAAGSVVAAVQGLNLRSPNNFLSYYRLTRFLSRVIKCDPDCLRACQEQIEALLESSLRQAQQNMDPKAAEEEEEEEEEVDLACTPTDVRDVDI
DYRK2 kinase, sequence (Q92630 whole entry): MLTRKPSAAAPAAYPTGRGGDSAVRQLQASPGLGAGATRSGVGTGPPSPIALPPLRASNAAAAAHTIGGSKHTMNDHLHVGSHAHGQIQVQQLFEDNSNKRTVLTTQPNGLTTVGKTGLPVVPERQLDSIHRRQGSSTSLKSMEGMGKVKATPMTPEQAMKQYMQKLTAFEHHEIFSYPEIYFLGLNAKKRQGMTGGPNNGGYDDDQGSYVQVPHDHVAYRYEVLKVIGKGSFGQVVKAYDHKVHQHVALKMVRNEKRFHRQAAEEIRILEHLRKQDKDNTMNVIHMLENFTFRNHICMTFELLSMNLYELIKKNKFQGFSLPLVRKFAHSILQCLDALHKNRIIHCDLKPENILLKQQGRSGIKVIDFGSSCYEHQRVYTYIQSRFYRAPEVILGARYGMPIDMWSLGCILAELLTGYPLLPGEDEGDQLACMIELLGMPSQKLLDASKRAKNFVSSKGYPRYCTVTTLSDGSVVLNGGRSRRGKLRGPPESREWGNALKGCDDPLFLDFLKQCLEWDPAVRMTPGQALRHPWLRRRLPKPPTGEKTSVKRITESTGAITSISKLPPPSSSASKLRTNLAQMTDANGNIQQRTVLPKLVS

Regarding `CN(C)c1nc2ccc(-c3nc(Nc4ccc(CN5CCNCC5)cn4)ncc3F)cc2s1` [Example 33, 6-(5-fluoro-2-((5-(piperazine-1-ylmethyl)pyridine-2-yl)amino)pyrimidine-4-yl)-N,N-dimethylbenzothiazole-2-amine hydrochloride], the IC50 in test [1] worked out at 59 nM.

Molecule `Fc1cnc(Nc2ccc(CN3CCNCC3)cn2)nc1-c1ccc2ncsc2c1` [Example 4, 4-(benzothiazole-6-yl)-5-fluoro-N-(5-(piperazine-1-ylmethyl)pyridine-2-yl)pyrimidine-2-amine hydrochloride] came in with an IC50 in test [1] of 268 nM. Molecule `CCN(CC)c1nc2ccc(-c3nc(Nc4ccc(CN5CCN(C(C)C)CC5)cn4)ncc3F)cc2s1` [Example 50] returned an IC50 in test [1] of 31 nM. This IC50 is about 8.6-fold lower than that of the molecule before.

`CCOC(=O)N1CCN(Cc2ccc(Nc3ncc(F)c(-c4ccc5nc(N(CC)CC)sc5c4)n3)nc2)CC1` [Example 49, ethyl 4-((6-((4-(2-(diethylamino)benzothiazole-6-yl)-5-fluoropyrimidine-2-yl)amino)pyridine-3-yl)methyl)piperazine-1-carboxylate] registered an IC50 in test [1] of over 10000 nM.

Consider `Cc1nc2ccc(-c3nc(Nc4ccc(C(=O)N5CCNCC5)cn4)ncc3F)cc2s1` [Example 17, (6-((5-fluoro-4-(2-methylbenzothiazole-6-yl)pyrimidine-2-yl)amino)pyridine-3-yl)(piperazine-1-yl)ketone hydrochloride], for which the figures for the IC50 in test [1] and in test [2] were 93 nM and 27 nM, respectively.

For `CC(C)(C)OC(=O)N1CCN(Cc2ccc(Nc3ncc(F)c(-c4ccc5ncsc5c4)n3)nc2)CC1` [Example 3, tert-butyl 4-((6-((4-(benzothiazole-6-yl)-5-fluoropyrimidine-2-yl)amino)pyridine-3-yl)methyl)piperazine-1-carboxylate], in test [1], the IC50 is 272 nM. Turning to `CN(C)c1nc2ccc(-c3nc(Nc4ccc(CN5CCN(S(C)(=O)=O)CC5)cn4)ncc3F)cc2s1` [Example 37, 6-(5-fluoro-2-((5-((4-(methanesulfonyl)piperazine-1-yl)methyl)pyridine-2-yl)amino)pyrimidine-4-yl)-N,N-dimethylbenzothiazole-2-amine], the IC50 in test [1] was over 10000 nM.

`Fc1cnc(Nc2ccc(N3CCNCC3)cn2)nc1-c1ccc2ncsc2c1` [Example 8, 4-(benzothiazole-6-yl)-5-fluoro-N-(5-(piperazine-1-yl)pyridine-2-yl)pyrimidine-2-amine hydrochloride]: the IC50 in test [1] was 129 nM; in test [2] it was 85 nM. As for `CCN(CC)c1nc2ccc(-c3nc(Nc4ccc(C(=O)N5CCN(C(C)C)CC5)cn4)ncc3F)cc2s1` [Example 51, (6-((4-(2-(diethylamino)benzothiazole-6-yl)-5-fluoropyrimidine-2-yl)amino)pyridine-3-yl)(4-isopropylpiperazine-1-yl)ketone], in test [1], inhibition was half-maximal at 8 nM (IC50). In other words, the single-digit nanomolar range. As to `CC(C)N1CCN(Cc2ccc(Nc3ncc(F)c(-c4ccc5ncsc5c4)n3)nc2)CC1` [Example 11, 4-(benzothiazole-6-yl)-5-fluoro-N-(5-((4-isopropylpiperazine-1-yl)methyl)pyridine-2-yl)pyrimidine-2-amine], the IC50 in test [1] was 175 nM; in test [2] it was 263 nM. Turning to `CCN1CCN(Cc2ccc(Nc3ncc(F)c(-c4ccc5nc(N(C)C)sc5c4)n3)nc2)CC1` [Example 30, 6-(2-((5-((4-ethylpiperazine-1-yl)methyl)pyridine-2-yl)amino)-5-fluoropyrimidine-4-yl)-N,N-dimethylbenzothiazole-2-amine], in test [1], half-maximal inhibition (IC50) required 254 nM. Turning to `CCN(CC)c1nc2ccc(-c3nc(Nc4ccc(CN5CCNCC5)cn4)ncc3F)cc2s1` [Example 45, N,N-diethyl-6-(5-fluoro-2-((5-(piperazine-1-ylmethyl)pyridine-2-yl)amino)pyrimidine-4-yl)benzothiazole-2-amine hydrochloride], the IC50 in test [1] is 45 nM; in test [2], 290 nM. `CCOC(=O)N1CCN(Cc2ccc(Nc3ncc(F)c(-c4ccc5nc(N(C)C)sc5c4)n3)nc2)CC1` [Example 38, ethyl 4-((6-((4-(2-(dimethylamino)benzothiazole-6-yl)-5-fluoropyrimidine-2-yl)amino)pyridine-3-yl)methyl)piperazine-1-carboxylate] returned an IC50 in test [1] of over 1000 nM. In the case of `CCN1CCN(C(=O)c2ccc(Nc3ncc(F)c(-c4ccc5ncsc5c4)n3)nc2)CC1` [Example 1, (6-((4-(benzothiazole-6-yl)-5-fluoropyrimidine-2-yl)amino)pyridine-3-yl)(4-ethylpiperazine-1-yl)ketone], the IC50 in test [1] stood at 144 nM. In other words, the sub-micromolar range.

The molecule `CCN1CCN(Cc2ccc(Nc3ncc(F)c(-c4ccc5ncsc5c4)n3)nc2)CC1` [Example 2, 4-(benzothiazole-6-yl)-N-(5-((4-ethylpiperazine-1-yl)methyl)pyridine-2-yl)-5-fluoropyrimidine-2-amine] came in with an IC50 in test [1] of 244 nM. This IC50 is about 1.7-fold higher than that of the molecule before. `CC(C)N1CCN(C(=O)c2ccc(Nc3ncc(F)c(-c4ccc5nc(N(C)C)sc5c4)n3)nc2)CC1` [Example 39, (6-((4-(2-(dimethylamino)benzothiazole-6-yl)-5-fluoropyrimidine-2-yl)amino)pyridine-3-yl)(4-isopropylpiperazine-1-yl)ketone]: the IC50 is 57 nM in test [1] and 16 nM in test [2]. `CC(C)(C)OC(=O)N1CCN(c2ccc(Nc3ncc(F)c(-c4ccc5ncsc5c4)n3)nc2)CC1` [Example 7, tert-butyl 4-(6-((4-(benzothiazole-6-yl)-5-fluoropyrimidine-2-yl)amino)pyridine-3-yl)piperazine-1-carboxylate] came in with an IC50 in test [1] of over 10000 nM.

In test [1], `Cc1nc2ccc(-c3nc(Nc4ccc(C(=O)N5CCN(C(=O)OC(C)(C)C)CC5)cn4)ncc3F)cc2s1` [Example 16, tert-butyl 4-(6-((5-fluoro-4-(2-methylbenzothiazole-6-yl)pyrimidine-2-yl)amino)nicotinoyl)piperazine-1-carboxylate] returned a 50% inhibitory concentration (IC50) of 86 nM. Consider `CCN1CCN(Cc2ccc(Nc3ncc(F)c(-c4ccc5nc(N(CC)CC)sc5c4)n3)nc2)CC1` [Example 43], for which the IC50 in test [1] turned out to be 15 nM; in test [2] it was 197 nM. Consider `CN(C)c1nc2ccc(-c3nc(Nc4ccc(N5CCNCC5)cn4)ncc3F)cc2s1` [Example 41, 6-(5-fluoro-2-((5-(piperazine-1-yl)pyridine-2-yl)amino)pyrimidine-4-yl)-N,N-dimethylbenzothiazole-2-amine hydrochloride], for which the midpoint of inhibition in test [1], the IC50, lay at 61 nM. Consider `CN(C)c1nc2ccc(-c3nc(Nc4ccc(N5CCN(C(=O)OC(C)(C)C)CC5)cn4)ncc3F)cc2s1` [Example 40, tert-butyl 4-(6-((4-(2-(dimethylamino)benzothiazole-6-yl)-5-fluoropyrimidine-2-yl)amino)pyridine-3-yl)piperazine-1-carboxylate], for which, in test [1], the IC50 was over 1000 nM. In turn, `CN(C)c1nc2ccc(-c3nc(Nc4ccc(CN5CCN(C(=O)OC(C)(C)C)CC5)cn4)ncc3F)cc2s1` [Example 32, tert-butyl 4-((6-((4-(2-(dimethylamino)benzothiazole-6-yl)-5-fluoropyrimidine-2-yl)amino)pyridine-3-yl)methyl)piperazine-1-carboxylate] returned an IC50 in test [1] of over 10000 nM.

`CN(C)c1nc2ccc(-c3nc(Nc4ccc(C(=O)N5CCN(C(=O)OC(C)(C)C)CC5)cn4)ncc3F)cc2s1` [Example 34, tert-butyl 4-(6-((4-(2-(dimethylamino)benzothiazole-6-yl)-5-fluoropyrimidine-2-yl)amino)nicotinoyl)piperazine-1-carboxylate]: in test [1], the concentration for half-maximal inhibition (IC50) is over 10000 nM. The same measure, in the same setting: in the case of `CCOC(=O)N1CCN(Cc2ccc(Nc3ncc(F)c(-c4ccc5ncsc5c4)n3)nc2)CC1` [Example 10, ethyl 4-((6-((4-(benzothiazole-6-yl)-5-fluoropyrimidine-2-yl)amino)pyridine-3-yl)methyl)piperazine-1-carboxylate] it was 169 nM; in that of `CC(C)N1CCN(Cc2ccc(Nc3ncc(F)c(-c4ccc5nc(N(C)C)sc5c4)n3)nc2)CC1` [Example 36, 6-(5-fluoro-2-((5-((4-isopropylpiperazine-1-yl)methyl)pyridine-2-yl)amino)pyrimidine-4-yl)-N,N-dimethylbenzothiazole-2-amine], 142 nM; in that of `CCN(CC)c1nc2ccc(-c3nc(Nc4ccc(CN5CCN(C(=O)OC(C)(C)C)CC5)cn4)ncc3F)cc2s1` [Example 44, tert-butyl 4-((6-((4-(2-(diethylamino)benzothiazole-6-yl)-5-fluoropyrimidine-2-yl)amino)pyridine-3-yl)methyl)piperazine-1-carboxylate], over 1000 nM. Molecule `CCN(CC)c1nc2ccc(-c3nc(Nc4ccc(CN5CCN(S(C)(=O)=O)CC5)cn4)ncc3F)cc2s1` [Example 48, N,N-diethyl-6-(5-fluoro-2-((5-((4-(methanesulfonyl)piperazine-1-yl)methyl)pyridine-2-yl)amino)pyrimidine-4-yl)benzothiazole-2-amine] showed an IC50 in test [1] of over 10000 nM. In test [1], `CN(C)c1nc2ccc(-c3nc(Nc4ccc(C(=O)N5CCNCC5)cn4)ncc3F)cc2s1` [Example 35, (6-((4-(2-(dimethylamino)benzothiazole-6-yl)-5-fluoropyrimidine-2-yl)amino)pyridine-3-yl)(piperazine-1-yl)ketone hydrochloride] returned an IC50 of 41 nM.
